Key:
[1] = cited from earlier work
[2] = test system: macrophages in kidney tissue; test: F4/80 immunostaining of kidney tissue after renal ischemia reperfusion; format: in vivo, C57BL/6J mice
Procedure: The animals were reared with free access to water and feed under conditions with an SPF environment and 12-hour light-dark cycling. C57BL/6J mice were purchased from Clea Japan, Inc. (Osaka). Male 12- to 16-week-old mice were treated by renal ischemia reperfusion (hereunder also referred to as “I/R”). The renal pedicles were clamped with a non-traumatic clip (Natsume Seisakusho, Tokyo) under pentobarbital anesthesia to elicit ischemia. The clips were released after 40 minutes. The body temperature was kept at 37° C. during treatment. The mice were reared with free access to water (control) or 20 mM D-alanine-containing water, prior to 14 days after IR treatment. On day 10 after IR treatment, the kidney tissues were sampled. After ischemia reperfusion, the kidney tissues harvested on day 10 were fixed with 10% neutral buffered formalin and supplied for immunostaining using F4/80 antibody (Invitrogen, catalog #: MF48,000). F4/80 is a protein expressed specifically by macrophages, and it allows visualization of macrophages in kidney tissue. In the water-administered control group, cells stained with F4/80 were found accumulated in kidney tissue ([…]), but in the D-alanine-administered groups (20 mM and 80 mM) such cellular accumulation was minimal (FIG. 3(A)). The proportion of stained region in each group was measured (FIG. 3(B)).

[3] = test system: fibrotic tissue in kidney; test: AZAN staining of kidney tissue after renal ischemia reperfusion; format: in vivo, C57BL/6J mice
Procedure: The animals were reared with free access to water and feed under conditions with an SPF environment and 12-hour light-dark cycling. C57BL/6J mice were purchased from Clea Japan, Inc. (Osaka). Male 12- to 16-week-old mice were treated by renal ischemia reperfusion (hereunder also referred to as “I/R”). The renal pedicles were clamped with a non-traumatic clip (Natsume Seisakusho, Tokyo) under pentobarbital anesthesia to elicit ischemia. The clips were released after 40 minutes. The body temperature was kept at 37° C. during treatment. The mice were reared with free access to water (control) or 20 mM D-alanine-containing water, prior to 14 days after IR treatment. On day 10 after IR treatment, the kidney tissues were sampled. After ischemia reperfusion, the kidney tissues sampled on day 10 were fixed with 10% neutral buffered formalin and provided for AZAN staining. In AZAN staining, fibrotic tissue is stained with aniline blue. […] The proportion of stained region in each group was measured (FIG. 4(B)).

[4] = test system: kidney tissue after ischemia reperfusion; test: PAS staining and ATN score of kidney tissue sections after renal ischemia reperfusion; format: in vivo, C57BL/6J mice; details: 10 days after ischemia reperfusion
Procedure: The animals were reared with free access to water and feed under conditions with an SPF environment and 12-hour light-dark cycling. C57BL/6J mice were purchased from Clea Japan, Inc. (Osaka). Male 12- to 16-week-old mice were treated by renal ischemia reperfusion (hereunder also referred to as “I/R”). The renal pedicles were clamped with a non-traumatic clip (Natsume Seisakusho, Tokyo) under pentobarbital anesthesia to elicit ischemia. The clips were released after 40 minutes. The body temperature was kept at 37° C. during treatment. […] On day 10 after IR treatment, the kidney tissues were sampled. After ischemia reperfusion, the kidneys sampled on day 10 were fixed with 10% neutral buffered formalin and embedded in paraffin, and then stained with periodic acid-Schiff (PAS staining). The stained slices were photographed with a bright-field microscope (FIG. 1). Debris stained with PAS (skin boundary) or brush border (skin boundary and cortical region) were quantitatively evaluated in at least 10 different locations. The debris, renal tubular dilation, brush border damage, and renal tubule necrosis were evaluated by ATN score (0: none, 1: mild, 2: moderate, 3: severe). Sample evaluation was carried out blind.

[5] = 10 days after ischemia reperfusion, D-alanine group vs water group
[6] = D-alanine group compared with water group

SMILES: C[C@@H](N)C(=O)O [D-alanine]
- adverse events when used as a food ([1]; ingestion on the order of 10 g): No adverse events have been reported
- toxicity via oral administration ([1]; oral administration): no reported toxicity
- F4/80 staining intensity of kidney tissue section (accumulation of macrophages and monocytes) [2, 5]: decreased in a dose-dependent manner
- accumulation of cells stained with F4/80 in kidney tissue ([2]; after ischemia reperfusion, D-alanine 20 mM and 80 mM vs water-administered control): minimal
- AZAN staining intensity of kidney tissue section (fibrosis) [3, 5]: decreased in a dose-dependent manner
- aniline blue-stained regions (fibrotic tissue) in kidney tissue ([3]; day 10 after ischemia reperfusion, D-alanine 20 mM and 80 mM vs water-administered control): reduced in a dose-dependent manner
- PAS staining intensity of kidney tissue section (accumulation of inflammatory cells such as neutrophils and eosinophils) ([4]; D-alanine 20 mM and 80 mM in drinking water vs water group): decreased in a dose-dependent manner
- grade of brush border region in kidney tissue section (ATN score) [4, 6]: improved in a dose-dependent manner
- grade of intraluminal debris in kidney tissue section (ATN score) [4, 6]: improved in a dose-dependent manner
- grade of necrosis in kidney tissue section (ATN score) [4, 6]: improved in a dose-dependent manner
